Measured values from ChEMBL document CHEMBL1150038, “Conformation of the CYP2D6 model substrate sparteine under physiological conditions” (Bioorg Med Chem Lett, 1993).

Assay: pKa value was determined
Assay type: physicochemical

## C1CCN2C[C@@H]3C[C@@H](CN4CCCC[C@@H]34)[C@H]2C1 [SPARTEINE]
  pKa: 11.4
